{"source": "paper PMC7415729", "about": "(Pharmacology, biochemistry, and behavior, 2020)", "key": {"C57BL/6 mice [1]": {"system": "C57BL/6 mice", "test": "Radiotelemetry of core temperature with 1-ABT pretreatment", "assay_type": "in vivo, mouse"}, "[2]": {"system": "HLM (human liver microsomes)", "test": "Oxidative metabolism by human microsomes", "assay_type": "in vitro ADME", "settings": "50 μM 5F-AKB48, mixed gender HLM 1 μg/μl, 60 min"}, "C57BL/6 mice [3]": {"system": "C57BL/6 mice", "test": "Cannabinoid tetrad: catalepsy", "assay_type": "in vivo, mouse"}, "[4]": {"system": "HIM (human intestinal microsomes)", "test": "Oxidative metabolism by human microsomes", "assay_type": "in vitro ADME", "settings": "50 μM 5F-AKB48, HIM 1 μg/μl, 60 min"}, "[5]": {"system": "HBM (human brain microsomes)", "test": "Oxidative metabolism by human microsomes", "assay_type": "in vitro ADME", "settings": "50 μM 5F-AKB48, HBM 1 μg/μl, 60 min"}, "CB1 receptors [6]": {"target": "T1, CB1 receptors (Mus musculus, UniProt P47746)", "T1 sequence (P47746 whole entry)": "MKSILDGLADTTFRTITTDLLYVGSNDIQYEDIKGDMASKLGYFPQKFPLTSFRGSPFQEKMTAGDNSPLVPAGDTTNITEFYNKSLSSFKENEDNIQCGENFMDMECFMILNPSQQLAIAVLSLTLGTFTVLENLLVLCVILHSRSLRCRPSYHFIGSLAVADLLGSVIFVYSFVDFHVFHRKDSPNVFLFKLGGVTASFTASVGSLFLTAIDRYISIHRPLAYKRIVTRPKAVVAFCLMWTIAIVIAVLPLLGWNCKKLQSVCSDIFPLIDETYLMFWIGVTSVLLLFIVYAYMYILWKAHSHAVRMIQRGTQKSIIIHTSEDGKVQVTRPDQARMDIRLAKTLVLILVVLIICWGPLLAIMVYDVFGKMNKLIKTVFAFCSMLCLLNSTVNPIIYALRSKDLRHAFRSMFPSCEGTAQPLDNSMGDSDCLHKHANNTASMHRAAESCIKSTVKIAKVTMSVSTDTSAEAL", "test": "Competition receptor binding vs [3H]CP-55,940 in mouse brain membranes", "settings": "pKi, displacement of 0.2 nM [3H]CP-55,940, mouse brain membranes, N=3"}, "C57BL/6 mice [7]": {"system": "C57BL/6 mice", "test": "Cannabinoid tetrad: hypothermia", "assay_type": "in vivo, mouse", "settings": "for reduction of rectal temperature below the physiological range: highest tested dose"}, "CB1 receptors [8]": {"target": "T1, CB1 receptors", "test": "[35S]GTPγS binding", "settings": "for EC50: N=3"}, "C57BL/6 mice [9]": {"system": "C57BL/6 mice", "test": "Cannabinoid tetrad: antinociception", "assay_type": "in vivo, mouse", "settings": "for tail withdrawal latency, % of the maximum: maximal latency 10 sec"}, "C57BL/6 mice [10]": {"system": "C57BL/6 mice", "test": "Cannabinoid tetrad: locomotor activity", "assay_type": "in vivo, mouse", "settings": "for decrease of locomotor activity below the vehicle control condition: highest tested dose"}, "[11]": {"settings": "5F-AKB48 3.2 mg/kg, mice pretreated with 100 mg/kg 1-ABT"}, "[12]": {"settings": "5F-AKB48 3.2 mg/kg, vehicle-pretreated mice"}, "[13]": {"settings": "rimonabant 10.0 mg/kg i.p. before 3.2 mg/kg 5F-AKB48"}, "[14]": {"settings": "rimonabant 10.0 mg/kg i.p. before 32 mg/kg Δ9-THC"}}}
{"smiles": "Nn1nnc2ccccc21", "note": "[1-ABT, reference compound]", "values": [{"measurement": "effect on core temperature", "setting": "C57BL/6 mice [1]; 100 mg/kg 1-ABT alone, 2 hours", "value": "no systematic changes in temperature"}]}
{"smiles": "O=C(NC12CC3CC(CC(C3)C1)C2)c1nn(CCCCCF)c2ccccc12", "note": "[5F-AKB48, N-(adamantan-1-yl)-1-(5-fluoropentyl)-1H-indazole-3-carboxamide]", "values": [{"measurement": "duration of hypothermic action", "setting": "C57BL/6 mice [1]; [11]", "value": "at least 12 hours"}, {"measurement": "minimum core temperature below the physiological range", "setting": "C57BL/6 mice [1]; [11]", "value": "approximately 7 °"}, {"measurement": "minimum core temperature below the physiological range", "setting": "C57BL/6 mice [1]; [12]", "value": "approximately 7 °"}, {"measurement": "time by which hypothermic effects completely resolved", "setting": "C57BL/6 mice [1]; [12]", "value": "≤ 4", "unit": "h"}, {"measurement": "area under the curve for hypothermic effects, 1-ABT-treated vs vehicle mice", "setting": "C57BL/6 mice [1]; 5F-AKB48 3.2 mg/kg, 100 mg/kg 1-ABT pretreatment", "value": "approximately 5 fold"}, {"measurement": "production of hydroxylated metabolites", "setting": "[2]", "value": "highest amount"}, {"measurement": "time by which cataleptic effects largely resolved", "setting": "C57BL/6 mice [3]; 5F-AKB48 3.2 mg/kg i.p.", "value": "≤ 3", "unit": "h"}, {"measurement": "horizontal bar latency", "setting": "C57BL/6 mice [3]; 5F-AKB48 3.2 mg/kg i.p., any time point, 30 sec cut-off", "value": "< 30", "unit": "s"}, {"measurement": "oxidative activity / metabolite production", "setting": "[4]", "value": "significant amount of activity"}, {"measurement": "oxidative activity", "setting": "[5]", "value": "did not show any activity"}, {"measurement": "Ki", "setting": "CB1 receptors [6]", "value": 0.665, "unit": "nM"}, {"measurement": "time by which hypothermic effects completely resolved", "setting": "C57BL/6 mice [7]; 5F-AKB48 3.2 mg/kg i.p.", "value": "≤ 4", "unit": "h"}, {"measurement": "reduction of rectal temperature below the physiological range", "setting": "C57BL/6 mice [7]; 5F-AKB48 3.2 mg/kg i.p.", "value": "approximately 4 °"}, {"measurement": "G protein activation by 1 μM compound on co-incubation with rimonabant", "setting": "CB1 receptors [8]; 1 μM compound + rimonabant 100 nM, mouse brain membranes", "value": "complete reversal"}, {"measurement": "EC50", "setting": "CB1 receptors [8]; pEC50, [35S]GTPγS binding, mouse brain membranes", "value": 6.24, "unit": "nM"}, {"measurement": "EC50", "setting": "CB1 receptors [8]; potency (EC50), [35S]GTPγS binding, mouse brain membranes 25 μg", "value": 7.7, "unit": "nM"}, {"measurement": "Emax", "setting": "CB1 receptors [8]; read-out: Emax, increase of [35S]GTPγS binding", "value": 182, "unit": "%"}, {"measurement": "duration of antinociceptive effects (still apparent)", "setting": "C57BL/6 mice [9]; 5F-AKB48 3.2 mg/kg i.p.", "value": "at least 6 hours"}, {"measurement": "tail withdrawal latency, % of the maximum", "setting": "C57BL/6 mice [9]; 5F-AKB48 3.2 mg/kg i.p., by 15 min post-injection", "value": "approximately 90%"}, {"measurement": "decrease of locomotor activity below the vehicle control condition", "setting": "C57BL/6 mice [10]; 5F-AKB48 3.2 mg/kg i.p.", "value": "approximately 5 fold"}]}
{"smiles": "Cc1c(C(=O)NN2CCCCC2)nn(-c2ccc(Cl)cc2Cl)c1-c1ccc(Cl)cc1", "note": "[rimonabant]", "values": [{"measurement": "effect of prior rimonabant on cataleptic effects of 5F-AKB48", "setting": "C57BL/6 mice [3]; [13]", "value": "completely blocked"}, {"measurement": "effect of prior rimonabant on cataleptic effects of Δ9-THC", "setting": "C57BL/6 mice [3]; [14]", "value": "completely blocked"}, {"measurement": "effect of prior rimonabant on hypothermic effects of 5F-AKB48", "setting": "C57BL/6 mice [7]; [13]", "value": "completely blocked"}, {"measurement": "effect of prior rimonabant on hypothermic effects of Δ9-THC", "setting": "C57BL/6 mice [7]; [14]", "value": "completely blocked"}, {"measurement": "effect of prior rimonabant on antinociceptive effects of 5F-AKB48", "setting": "C57BL/6 mice [9]; [13]", "value": "completely blocked"}, {"measurement": "effect of prior rimonabant on antinociceptive effects of Δ9-THC", "setting": "C57BL/6 mice [9]; [14]", "value": "completely blocked"}, {"measurement": "effect of prior rimonabant on hypolocomotor effects of 5F-AKB48", "setting": "C57BL/6 mice [10]; [13]", "value": "partially attenuated"}, {"measurement": "effect of prior rimonabant on hypolocomotor effects of Δ9-THC", "setting": "C57BL/6 mice [10]; [14]", "value": "partially attenuated"}]}
{"smiles": "CCCCCc1cc(O)c2c(c1)OC(C)(C)[C@@H]1CCC(C)=C[C@@H]21", "note": "[Δ^9-THC, Δ^9-tetrahydrocannabinol]", "values": [{"measurement": "duration of cataleptic effects (still apparent)", "setting": "C57BL/6 mice [3]; Δ9-THC 32 mg/kg i.p.", "value": "≥ 6", "unit": "h"}, {"measurement": "horizontal bar latency", "setting": "C57BL/6 mice [3]; Δ9-THC 32 mg/kg i.p., by 15 min post-injection, 30 sec maximum", "value": "~30", "unit": "s"}, {"measurement": "duration of hypothermic effects (still apparent after drug administration)", "setting": "C57BL/6 mice [7]; Δ9-THC 32 mg/kg i.p.", "value": "≥ 6", "unit": "h"}, {"measurement": "reduction of rectal temperature below the physiological range", "setting": "C57BL/6 mice [7]; Δ9-THC 32 mg/kg i.p.", "value": "approximately 4 °"}, {"measurement": "duration of antinociceptive effects (still apparent)", "setting": "C57BL/6 mice [9]; Δ9-THC 32 mg/kg i.p.", "value": "at least 6 hours"}, {"measurement": "tail withdrawal latency, % of the maximum", "setting": "C57BL/6 mice [9]; Δ9-THC 32 mg/kg i.p., by 30 min post-injection", "value": "approximately 90%"}, {"measurement": "decrease of locomotor activity below the vehicle control condition", "setting": "C57BL/6 mice [10]; Δ9-THC 32 mg/kg i.p.", "value": "approximately 5 fold"}]}
